# Experimental data as given in US20080248574A1, “ANTAGONISTS OF THE INTERACTION OF MELANOMA INHIBITORY ACTIVITY (MIA) AND P66SHC” (University of Pittsburgh - Of the Commonwealth System of …, priority 2007, published 2008).
# Ends that are not written are not given here.
# Columns and labels:
# HMB2 melanoma cells = assay: H2O2-induced cell death in HMB2 cells, cell viability by MTT absorbance; format: cell-based, human; details: 20 μM polypeptide; 50 μM H2O2 two hours later; viability after 24 hours; versus H2O2-treated cells in the absence of polypeptide; p<0.05; FIG. 1
# Protocol: FIG. 1 is a graph showing the percentage of cell viability measured by MTT absorbance in HMB2 melanoma cells that were treated with a polypeptide comprising SEQ ID NO: 1 and SEQ ID NO: 2 (TAT-peptide) and H2O2.
# To determine the effect of the administration of a polypeptide comprising SEQ ID NO: 1 on H2O2-induced cell death, HMB2 cells were administered 20 μM of the polypeptide. Two hours following the polypeptide administration, the cells were treated with 50 μM of H2O2. After 24 hours, the cell viability was quantified using MTT absorbance.
# [1] = system: MIA-expressing HMB2 human metastatic melanoma cells; assay: Entry of FITC-labeled polypeptide into HMB2 cells (phase contrast and image capture); format: cell-based; details: 10 μM FITC-labeled polypeptide, 2.5 hours after addition
# Protocol: The ability of a polypeptide comprising SEQ ID NO: 4 to enter and sensitize MIA-expressing HMB2 human metastatic melanoma cells to oxidative stress-induced death was examined. Cells were treated with 10 μM FITC-labeled polypeptide, followed by phase contrast and image capture.
Substance,"sensitivity of H2O2-treated cells to H2O2-death (cell viability, MTT absorbance) (HMB2 melanoma cells)",transduction of cells with the peptide [1]
polypeptide comprising SEQ ID NO: 1: Polypeptide comprising residues 41-60 of the p66shc CH2 domain (SEQ ID NO: 1) and HIV TAT (SEQ ID NO: 2) (SLGPILPPLPGDDSPTTLCSYGRKKRRQRR),significantly increased,
"polypeptide comprising SEQ ID NO: 4: Polypeptide comprising a BRR domain (HIV TAT), spacer and CH2 domain portion of p66shc; FITC-labeled in the test (YGRKKRRQRRGGGSLGPILPPLPGDDSPTTLCS; also: FITC label, position not given here)",,the majority of the cells were transduced
